Several values for one entry are separate records, joined by “and”; a condition that tells them apart may be missing. Equal entries are not always repeated.
Legend:
[1] = Henry solubility constant Hcp at 298.15 K (mol/(m3 Pa))
[2] = Henry solubility constant Hcp at 284 K (mol/(m3 Pa)); details: reference: George et al. (1994b)
[3] = Henry solubility constant Hcp at 278 K (mol/(m3 Pa)); details: reference: De Bruyn et al. (1995a)
[4] = Henry solubility constant Hcp at 290 K (mol/(m3 Pa))
[5] = Henry solubility constant Hcp at 273 K (mol/(m3 Pa)); details: reference: Razumovskii and Zaikov (1971)
[6] = Henry solubility constant Hcp at 310 K (mol/(m3 Pa)); details: reference: Power and Stegall (1970)
[7] = Henry solubility constant Hcp at 293 K (mol/(m3 Pa))
[8] = Henry solubility constant Hcp at 294 K (mol/(m3 Pa)); details: reference: Gan and Yates (1996)
[9] = Henry solubility constant Hcp at 311 K (mol/(m3 Pa)); details: reference: Grollman (1929)
[10] = Henry solubility constant Hcp at 313 K (mol/(m3 Pa)); details: reference: Vitenberg et al. (1974)
[11] = Henry solubility constant Hcp at 301 K (mol/(m3 Pa)); details: reference: Nelson and Hoff (1968)
[12] = Henry solubility constant Hcp at 323 K (mol/(m3 Pa)); details: reference: Dallos et al. (1983)
[13] = Henry solubility constant Hcp at 283 K (mol/(m3 Pa))
[14] = Henry solubility constant Hcp at 308 K (mol/(m3 Pa)); details: reference: Guo and Brimblecombe (2007)
[15] = Henry solubility constant Hcp at 333 K (mol/(m3 Pa)); details: reference: Severit (1997)
[16] = Henry solubility constant Hcp at 275 K (mol/(m3 Pa)); details: reference: Katrib et al. (2001)
[17] = Henry solubility constant Hcp at 287 K (mol/(m3 Pa)); details: reference: Hempel (1901)
[18] = Henry solubility constant Hcp at 353 K (mol/(m3 Pa)); details: reference: St-Pierre et al. (2014)
[19] = Henry solubility constant Hcp at 297 K (mol/(m3 Pa))
[20] = Henry solubility constant Hcp at 288 K (mol/(m3 Pa))
[21] = Henry solubility constant Hcp at 303 K (mol/(m3 Pa)); details: reference: Richon et al. (1985)
[22] = reference: Mirabel et al. (1996)
[23] = reference: Thomas et al. (2006)
[24] = reference: Morrison and Billett (1952)
[25] = reference: Orcutt and Seevers (1937a)
[26] = reference: Straver and de Loos (2005)
[27] = reference: Vitenberg et al. (1974)

SMILES: O=C(Cl)C(F)(F)F [trifluoroacetylchloride]
- Henry solubility constant Hcp [1, 22]: 0.02
- Henry solubility constant Hcp at 284 K [2]: 0.02
- Henry solubility constant Hcp at 278 K [3]: 0.0027

SMILES: Cl/C=C\CCl [cis-1,3-dichloropropene]
- Henry solubility constant Hcp ([1]; reference: Leistra (1970)): 0.005
- Henry solubility constant Hcp at 290 K [4, 23]: 0.01

SMILES: O=O [oxygen]
- Henry solubility constant Hcp at 273 K [5]: 0.00014
- Henry solubility constant Hcp ([1]; reference: Benson et al. (1979)): 1.3e-05
- Henry solubility constant Hcp ([1]; reference: Bohr and Bock (1891)): 1.3e-05
- Henry solubility constant Hcp ([1]; reference: Bunsen (1855a)): 1.2e-05
- Henry solubility constant Hcp ([1]; reference: Carpenter (1966)): 1.2e-05
- Henry solubility constant Hcp ([1]; reference: Cosgrove and Walkley (1981)): 1.3e-05
- Henry solubility constant Hcp ([1]; reference: Cramer (1980)): 1.3e-05
- Henry solubility constant Hcp ([1]; reference: Fox (1909)): 1.3e-05
- Henry solubility constant Hcp ([1]; reference: Geffcken (1904)): 1.2e-05
- Henry solubility constant Hcp ([1]; reference: Millero et al. (2002a)): 1.2e-05
- Henry solubility constant Hcp ([1]; reference: Millero et al. (2002b)): 1.2e-05
- Henry solubility constant Hcp [1, 24]: 1.3e-05
- Henry solubility constant Hcp ([1]; reference: Murray and Riley (1969)): 1.3e-05
- Henry solubility constant Hcp [1, 25]: 1.2e-05
- Henry solubility constant Hcp ([1]; reference: Rettich et al. (1981)): 1.3e-05
- Henry solubility constant Hcp ([1]; reference: Rettich et al. (2000)): 1.3e-05
- Henry solubility constant Hcp ([1]; reference: Sherwood et al. (1991)): 1.3e-05
- Henry solubility constant Hcp ([1]; reference: Shoor et al. (1969)): 1.2e-05
- Henry solubility constant Hcp ([1]; reference: Timofejew (1890)): 1.2e-05
- Henry solubility constant Hcp ([1]; reference: Winkler (1891b)): 1.3e-05
- Henry solubility constant Hcp at 310 K [6]: 1.1e-05
- Henry solubility constant Hcp at 293 K ([7]; reference: da Silva et al. (1980)): 1.2e-05

SMILES: CBr [bromomethane]
- Henry solubility constant Hcp ([1]; reference: De Bruyn and Saltzman (1997)): 0.0018
- Henry solubility constant Hcp ([1]; reference: Elliott and Rowland (1993)): 0.0017
- Henry solubility constant Hcp ([1]; reference: Glew and Moelwyn-Hughes (1953)): 0.0016
- Henry solubility constant Hcp ([1]; reference: Swain and Thornton (1962)): 0.0015
- Henry solubility constant Hcp at 294 K [8]: 0.0014
- Henry solubility constant Hcp at 290 K [4, 23]: 0.002

SMILES: C=C [ethene]
- Henry solubility constant Hcp ([1]; reference: Maaßen (1995)): 4.9e-05
- Henry solubility constant Hcp [1, 24]: 4.7e-05
- Henry solubility constant Hcp [1, 25]: 4.8e-05
- Henry solubility constant Hcp ([1]; reference: Reichl (1995)): 4.8e-05
- Henry solubility constant Hcp ([1]; reference: Winkler (1906)): 4.8e-05
- Henry solubility constant Hcp at 311 K [9]: 3.4e-05

SMILES: Cl/C=C/CCl [trans-1,3-dichloropropene]
- Henry solubility constant Hcp ([1]; reference: Leistra (1970)): 0.0081
- Henry solubility constant Hcp at 290 K [4, 23]: 0.015

SMILES: CCCC(C)=O [2-pentanone]
- Henry solubility constant Hcp at 313 K [10]: 0.11
- Henry solubility constant Hcp ([1]; reference: Chai et al. (2005)): 0.1
- Henry solubility constant Hcp ([1]; reference: Hawthorne et al. (1985)): 0.09
- Henry solubility constant Hcp ([1]; reference: Hovorka et al. (2019)): 0.13
- Henry solubility constant Hcp ([1]; reference: Ji and Evans (2007)): 0.16
- Henry solubility constant Hcp ([1]; reference: Kim et al. (2000)): 0.11
- Henry solubility constant Hcp [1, 26]: 0.086
- Henry solubility constant Hcp [1, 27]: 0.17
- Henry solubility constant Hcp at 301 K [11]: 0.092

SMILES: Nc1ccccc1 [aminobenzene]
- Henry solubility constant Hcp at 323 K [12]: 1.1
- Henry solubility constant Hcp ([1]; reference: Jayasinghe et al. (1992)): 5
- Henry solubility constant Hcp at 283 K ([13]; reference: Heal et al. (1995)): 1.2

SMILES: O=C(F)C(F)(F)F [trifluoroacetylfluoride]
- Henry solubility constant Hcp [1, 22]: 0.03
- Henry solubility constant Hcp at 284 K [2]: 0.03
- Henry solubility constant Hcp at 278 K [3]: 0.0095

SMILES: O=[N+]([O-])c1ccc(O)cc1 [4-nitrophenol]
- Henry solubility constant Hcp at 308 K [14]: 210

SMILES: [Cl][Hg][Cl] [mercury dichloride]
- Henry solubility constant Hcp at 333 K [15]: 1000

SMILES: ClBr [bromine chloride]
- Henry solubility constant Hcp at 275 K [16]: < 0.062
- Henry solubility constant Hcp ([1]; reference: Bartlett and Margerum (1999)): 0.0093
- Henry solubility constant Hcp at 290 K ([4]; reference: Disselkamp et al. (1999)): 0.015

SMILES: O=[N+]([O-])c1cccc(O)c1 [3-nitrophenol]
- Henry solubility constant Hcp at 308 K [14]: 160

SMILES: O=C=S [carbon oxide sulfide]
- Henry solubility constant Hcp ([1]; reference: De Bruyn et al. (1995b)): 0.00022
- Henry solubility constant Hcp ([1]; reference: Stock and Kuß (1917)): 0.00024
- Henry solubility constant Hcp ([1]; reference: Winkler (1906)): 0.00021
- Henry solubility constant Hcp ([1]; reference: Winkler (1907)): 0.00021
- Henry solubility constant Hcp at 287 K [17]: 0.00034

SMILES: O=S=O [sulfur dioxide]
- Henry solubility constant Hcp at 353 K [18]: 0.4
- Henry solubility constant Hcp ([1]; reference: Johnstone and Leppla (1934)): 0.012
- Henry solubility constant Hcp ([1]; reference: Schoenfeld (1855)): 0.014

SMILES: [N]=O [nitrogen monoxide]
- Henry solubility constant Hcp ([1]; reference: Komiyama and Inoue (1978)): 1.9e-05
- Henry solubility constant Hcp ([1]; reference: Winkler (1901)): 1.9e-05
- Henry solubility constant Hcp at 297 K ([19]; reference: Zafiriou and McFarland (1980)): 1.3e-05
- Henry solubility constant Hcp at 288 K ([20]; reference: Komiyama and Inoue (1980)): 2.3e-05

SMILES: C#C [ethyne]
- Henry solubility constant Hcp ([1]; reference: Gatterer (1926)): 0.00042
- Henry solubility constant Hcp ([1]; reference: Jadkar and Chaudhari (1980)): 0.0004
- Henry solubility constant Hcp ([1]; reference: Kremann and Hönel (1913)): 0.00037
- Henry solubility constant Hcp ([1]; reference: Maillard and Rosenthal (1952)): 0.00025
- Henry solubility constant Hcp ([1]; reference: Winkler (1906)): 0.00041
- Henry solubility constant Hcp at 288 K ([20]; reference: Billitzer (1902)): 0.00051
- Henry solubility constant Hcp at 311 K [9]: 0.00033

SMILES: C[Si]1(C)O[Si](C)(C)O[Si](C)(C)O[Si](C)(C)O[Si](C)(C)O[Si](C)(C)O1 [dodecamethylcyclohexasiloxane]
- Henry solubility constant Hcp at 297 K ([19]; reference: Xu and Kropscott (2012)): 4e-07

SMILES: C=CCl [chloroethene]
- Henry solubility constant Hcp ([1]; reference: Chen et al. (2012)): 0.00041
- Henry solubility constant Hcp ([1]; reference: Gossett (1987)): 0.00037
- Henry solubility constant Hcp at 283 K ([13]; reference: Pearson and McConnell (1975)): 8.5e-06

SMILES: CC(=O)OO[N+](=O)[O-] [peroxyacetyl nitrate]
- Henry solubility constant Hcp ([1]; reference: Easterbrook et al. (2023)): 0.03
- Henry solubility constant Hcp ([1]; reference: Frenzel et al. (2000)): 0.023
- Henry solubility constant Hcp ([1]; reference: Kames et al. (1991)): 0.028
- Henry solubility constant Hcp at 293 K ([7]; reference: Kames and Schurath (1995)): 0.04
- Henry solubility constant Hcp at 283 K ([13]; reference: Holdren et al. (1984)): 0.049

SMILES: CC(C)=O [propanone]
- Henry solubility constant Hcp at 303 K [21]: 0.19
- Henry solubility constant Hcp ([1]; reference: Benkelberg et al. (1995)): 0.27
- Henry solubility constant Hcp ([1]; reference: Betterton (1991)): 0.32
- Henry solubility constant Hcp ([1]; reference: Burnett (1963)): 0.28
- Henry solubility constant Hcp ([1]; reference: Chai et al. (2005)): 0.24
- Henry solubility constant Hcp ([1]; reference: Ioffe et al. (1984)): 0.2
- Henry solubility constant Hcp ([1]; reference: Ji and Evans (2007)): 0.26
- Henry solubility constant Hcp ([1]; reference: Lichtenbelt and Schram (1985)): 0.26
- Henry solubility constant Hcp ([1]; reference: Poulain et al. (2010)): 0.29
- Henry solubility constant Hcp ([1]; reference: Schoene and Steinhanses (1985)): 0.32
- Henry solubility constant Hcp ([1]; reference: Snider and Dawson (1985)): 0.25
- Henry solubility constant Hcp [1, 26]: 0.24
- Henry solubility constant Hcp ([1]; reference: Strekowski and George (2005)): 0.26
- Henry solubility constant Hcp [1, 27]: 0.25 and 0.32
- Henry solubility constant Hcp ([1]; reference: Vitenberg et al. (1975)): 0.25
- Henry solubility constant Hcp at 297 K ([19]; reference: Nozière and Riemer (2003)): 0.27
- Henry solubility constant Hcp at 301 K [11]: 0.31
- Henry solubility constant Hcp at 293 K ([7]; reference: Yu (1992)): 0.17

From Sander's compilation of Henry's law constants
